Laboratory results published in US10913727B2, “Modulators of the integrated stress pathway” (Calico Life Sciences LLC, priority 2016, dated 2021).

tested on: HEK293T cells carrying the ATF4 luciferase reporter; assay: ATF4-Luc assay, in vitro model of Vanishing Cell White Matter Disease (VWMD); format: cell-based; conditions: Homo sapiens, HEK-293T, 1 μg/mL tunicamycin, 7 hours, One Glo luminescence
Outline: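 Compound at 200 nM and tunicamycin at 1 μg/mL were given together for 7 h to HEK293T cells stably transduced with an ATF4 5′-UTR-driven firefly luciferase reporter. Read-out by luminescence, reported as EC50.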

Compound | EC50 [nM]
O=C(COc1ccc(Cl)c(F)c1)NC12CCC(NC(=O)c3cc(N4CCOCC4)ccn3)(CC1)CC2O (stereo not shown) [Compound 935, N-{4-[2-(4-chloro-3-fluorophenoxy)acetamido]-3-hydroxybicyclo[2.2.2]octan-1-yl}-4-(morpholin-4-yl)pyridine-2-carboxamide] | > 2000
Cc1cnc(C(=O)NC23CC(NC(=O)COc4ccc(Cl)cc4)(C2)C3)cn1 [Compound 136, N-{3-[2-(4-chlorophenoxy)acetamido]bicyclo[1.1.1]pentan-1-yl}-5-methylpyrazine-2-carboxamide] | 250 to 1000
O=C(COc1ccc(Cl)c(F)c1)NC12CCC(NC(=O)c3cnc4ccccc4n3)(CC1)C[C@@H]2O [Compound 667, N-{(3S)-4-[2-(4-chloro-3-fluorophenoxy)acetamido]-3-hydroxybicyclo[2.2.2]octan-1-yl}quinoxaline-2-carboxamide] | < 50
O=C(COc1ccc(Cl)c(F)c1)NC12CC(NC(=O)c3c(F)cccc3F)(C1)C2 [Compound 512, N-{3-[2-(4-chloro-3-fluorophenoxy)acetamido]bicyclo[1.1.1]pentan-1-yl}-2,6-difluorobenzamide] | > 2000
O=C(COc1ccc2c(c1)OC(F)(F)O2)NC12CC(NC(=O)c3cnc(C(F)F)cn3)(C1)C2 [Compound 376, N-(3-{2-[(2,2-difluoro-2H-1,3-benzodioxol-5-yl)oxy]acetamido}bicyclo[1.1.1]pentan-1-yl)-5-(difluoromethyl)pyrazine-2-carboxamide] | 50 to 250
Cn1c(C(=O)NC23CC(NC(=O)COc4ccc(Cl)c(F)c4)(C2)C3)ccc1S(N)(=O)=O [Compound 867, N-{3-[2-(4-chloro-3-fluorophenoxy)acetamido]bicyclo[1.1.1]pentan-1-yl}-1-methyl-5-sulfamoyl-1H-pyrrole-2-carboxamide] | > 2000
O=C(COc1ccc(Cl)c(F)c1)NC12CCC(NC(=O)c3ccc(F)cn3)(CC1)CC2O (stereo not shown) [Compound 230, N-{4-[2-(4-chloro-3-fluorophenoxy)acetamido]-3-hydroxybicyclo[2.2.2]octan-1-yl}-5-fluoropyridine-2-carboxamide] | 50 to 250
CCn1ccc(C(=O)NC23CC(NC(=O)COc4ccc(Cl)c(F)c4)(C2)C3)cc1=O [Compound 405, N-{3-[2-(4-chloro-3-fluorophenoxy)acetamido]bicyclo[1.1.1]pentan-1-yl}-1-ethyl-2-oxo-1,2-dihydropyridine-4-carboxamide] | > 2000
Cc1cc(C(=O)NC23CC(NC(=O)COc4ccc(Cl)c(F)c4)(C2)C3)oc1C [Compound 612, N-{3-[2-(4-chloro-3-fluorophenoxy)acetamido]bicyclo[1.1.1]pentan-1-yl}-4,5-dimethylfuran-2-carboxamide] | 50 to 250
Cc1nc2ccc(C(=O)NC34CC(NC(=O)COc5ccc(Cl)c(F)c5)(C3)C4)cc2s1 [Compound 774, N-{3-[2-(4-chloro-3-fluorophenoxy)acetamido]bicyclo[1.1.1]pentan-1-yl}-2-methyl-1,3-benzothiazole-6-carboxamide] | > 2000
CCc1ccnc(C(=O)NC23CC(NC(=O)COc4ccc(Cl)c(F)c4)(C2)C3)c1 [Compound 197, N-{3-[2-(4-chloro-3-fluorophenoxy)acetamido]bicyclo[1.1.1]pentan-1-yl}-4-ethylpyridine-2-carboxamide] | 50 to 250
Cc1cccc(C(=O)NC23CCC(NC(=O)COc4ccc(Cl)c(F)c4)(CC2)C(O)C3)n1 (stereo not shown) [Compound 914, N-{4-[2-(4-chloro-3-fluorophenoxy)acetamido]-3-hydroxybicyclo[2.2.2]octan-1-yl}-6-methylpyridine-2-carboxamide] | 50 to 250
Cc1nc(C(=O)NC23CC(NC(=O)COc4ccc(Cl)c(F)c4)(C2)C3)cs1 [Compound 539, N-{3-[2-(4-chloro-3-fluorophenoxy)acetamido]bicyclo[1.1.1]pentan-1-yl}-2-methyl-1,3-thiazole-4-carboxamide] | 50 to 250
Cc1nocc1C(=O)NC12CC(NC(=O)COc3ccc(Cl)c(F)c3)(C1)C2 [Compound 879, N-{3-[2-(4-chloro-3-fluorophenoxy)acetamido]bicyclo[1.1.1]pentan-1-yl}-3-methyl-1,2-oxazole-4-carboxamide] | > 2000
O=C(COc1ccc(Cl)c(Cl)c1)NC12CC(NC(=O)c3cnc4ccccc4n3)(C1)C2 [Compound 920, N-{3-[2-(3,4-dichlorophenoxy)acetamido]bicyclo[1.1.1]pentan-1-yl}quinoxaline-2-carboxamide] | < 50
Cc1nnc(NC23CC(NC(=O)COc4ccc(Cl)c(F)c4)(C2)C3)o1 [Compound 393, 2-(4-chloro-3-fluorophenoxy)-N-{3-[(5-methyl-1,3,4-oxadiazol-2-yl)amino]bicyclo[1.1.1]pentan-1-yl}acetamide] | > 2000
Cc1c(Cl)c(C(=O)NC23CC(NC(=O)COc4ccc(Cl)c(F)c4)(C2)C3)nn1C [Compound 780, 4-chloro-N-{3-[2-(4-chloro-3-fluorophenoxy)acetamido]bicyclo[1.1.1]pentan-1-yl}-1,5-dimethyl-1H-pyrazole-3-carboxamide] | > 2000

Compound | EC50 [nM]
O=C(COc1ccc(Cl)c(F)c1)NC12CC(Nc3ccc(C(F)(F)F)cn3)(C1)C2 [Compound 103, 2-(4-chloro-3-fluorophenoxy)-N-(3-{[5-(trifluoromethyl)pyridin-2-yl]amino}bicyclo[1.1.1]pentan-1-yl)acetamide] | 1000 to 2000
Cc1cc(C(=O)NC23CCC(NC(=O)COc4ccc(Cl)c(F)c4)(CC2)CC3)on1 [Compound 444, N-{4-[2-(4-chloro-3-fluorophenoxy)acetamido]bicyclo[2.2.2]octan-1-yl}-3-methyl-1,2-oxazole-5-carboxamide] | > 2000
CCCOc1ccc(C(=O)NC23CC(NC(=O)COc4ccc(Cl)c(F)c4)(C2)C3)cc1 [Compound 316, N-{3-[2-(4-chloro-3-fluorophenoxy)acetamido]bicyclo[1.1.1]pentan-1-yl}-4-propoxybenzamide] | 50 to 250
O=C(COc1ccc(Cl)c(F)c1)NC12CCC(NC(=O)c3cccc(F)c3)(CC1)C[C@@H]2O [Compound 681, N-{(3S)-4-[2-(4-chloro-3-fluorophenoxy)acetamido]-3-hydroxybicyclo[2.2.2]octan-1-yl}-3-fluorobenzamide] | < 50
Cc1ccc(C(=O)NC23CC(NC(=O)COc4ccc(Cl)c(Cl)c4)(C2)C3)c(C)n1 [Compound 687, N-{3-[2-(3,4-dichlorophenoxy)acetamido]bicyclo[1.1.1]pentan-1-yl}-2,6-dimethylpyridine-3-carboxamide] | 250 to 1000
O=C(COc1ccc(Cl)c(F)c1)NC12CC(NC(=O)c3cc4ncccn4n3)(C1)C2 [Compound 122, N-{3-[2-(4-chloro-3-fluorophenoxy)acetamido]bicyclo[1.1.1]pentan-1-yl}pyrazolo[1,5-a]pyrimidine-2-carboxamide] | 1000 to 2000
Cc1cnc2cc(C(=O)NC34CC(NC(=O)COc5ccc(Cl)c(F)c5)(C3)C4)nn2c1 [Compound 833, N-{3-[2-(4-chloro-3-fluorophenoxy)acetamido]bicyclo[1.1.1]pentan-1-yl}-6-methylpyrazolo[1,5-a]pyrimidine-2-carboxamide] | 1000 to 2000
O=C(COc1ccc(Cl)c(F)c1)NC12CC(NC(=O)c3cccc[n+]3[O-])(C1)C2 [Compound 403, N-{3-[2-(4-chloro-3-fluorophenoxy)acetamido]bicyclo[1.1.1]pentan-1-yl}-1-oxo-1λ^5-pyridine-2-carboxamide] | > 2000
CC(=O)Nc1sccc1C(=O)NC12CC(NC(=O)COc3ccc(Cl)c(F)c3)(C1)C2 [Compound 876, 2-acetamido-N-{3-[2-(4-chloro-3-fluorophenoxy)acetamido]bicyclo[1.1.1]pentan-1-yl}thiophene-3-carboxamide] | 250 to 1000
CC(=O)N1CCC(c2ncc(C(=O)NC34CC(NC(=O)COc5ccc(Cl)c(Cl)c5)(C3)C4)o2)CC1 [Compound 149, 2-(1-acetylpiperidin-4-yl)-N-{3-[2-(3,4-dichlorophenoxy)acetamido]bicyclo[1.1.1]pentan-1-yl}-1,3-oxazole-5-carboxamide] | 1000 to 2000
COCc1cncc(C(=O)NC23CC(NC(=O)COc4ccc(Cl)c(Cl)c4)(C2)C3)c1 [Compound 569, N-{3-[2-(3,4-dichlorophenoxy)acetamido]bicyclo[1.1.1]pentan-1-yl}-5-(methoxymethyl)pyridine-3-carboxamide] | < 50
O=C(COc1ccc(Cl)c(F)c1)NC12CC(NC(=O)c3cc(O)ccn3)(C1)C2 [Compound 183, N-{3-[2-(4-chloro-3-fluorophenoxy)acetamido]bicyclo[1.1.1]pentan-1-yl}-4-hydroxypyridine-2-carboxamide] | 1000 to 2000
O=C(COc1ccc(Cl)c(F)c1)NC12CC(NC(=O)c3cnc(C(F)(F)F)s3)(C1)C2 [Compound 563, N-{3-[2-(4-chloro-3-fluorophenoxy)acetamido]bicyclo[1.1.1]pentan-1-yl}-2-(trifluoromethyl)-1,3-thiazole-5-carboxamide] | < 50
CCc1cc(C(=O)NC23CC(NC(=O)COc4ccc(Cl)c(F)c4)(C2)C3)no1 [Compound 247, N-{3-[2-(4-chloro-3-fluorophenoxy)acetamido]bicyclo[1.1.1]pentan-1-yl}-5-ethyl-1,2-oxazole-3-carboxamide] | 250 to 1000
COc1cc(OC)nc(C(=O)NC23CC(NC(=O)COc4ccc(Cl)c(F)c4)(C2)C3)n1 [Compound 116, N-{3-[2-(4-chloro-3-fluorophenoxy)acetamido]bicyclo[1.1.1]pentan-1-yl}-4,6-dimethoxypyrimidine-2-carboxamide] | > 2000
O=C(COc1ccc(Cl)c(F)c1)NC12CC(Nc3nccn4nccc34)(C1)C2 [Compound 722, 2-(4-chloro-3-fluorophenoxy)-N-{3-[(pyrazolo[1,5-a]pyrazin-4-yl)amino]bicyclo[1.1.1]pentan-1-yl}acetamide] | 50 to 250
Cc1ccc(C(=O)NC23CC(NC(=O)COc4ccc(Cl)c(F)c4)(C2)C3)cn1 [Compound 140, N-{3-[2-(4-chloro-3-fluorophenoxy)acetamido]bicyclo[1.1.1]pentan-1-yl}-6-methylpyridine-3-carboxamide] | 250 to 1000
